Legend:
HCC44 = experiment: Treatment of HCC44 with cGAS inhibitor, STING signaling in response to cGAMP stimulation; type: cell-based, human; conditions: HCC44 cells
Description: Suppression of CIN or cGAS activity restores immunogenic potential of LKB1-deficient NSCLC. In experiments, relief of tonic STING activation via cGAMP could be removed by genetically deleting cGAS. Treatment of HCC44 with a commercially available human-selective cGAS inhibitor (G150) restored STING protein levels and enhanced pTBK1 and pIRF3 in response to cGAMP stimulation, thus, phenocopying genetic cGAS deletion experiments.

[1] = tested on: KL, 4T1, and EO771.1mb tumors; experiment: RU.521 and MSA-2 combination treatment of KL, 4T1 and EO771.1mb tumors in animals; type: in vivo; conditions: KL (subcutaneous), 4T1 and EO771.1mb (orthotopic); agent alone
Experimental: (§1) Given mounting evidence on reprograming of macrophages by STING agonists, macrophage polarization assays were carried out. […] Finally, KL, 4T1, and EO771.1mb were inoculated subcutaneously (KL) or orthotopically (4T1 and EO771.1mb) to evaluate the efficacy of RU.521 and MSA-2 combination treatment. Animals were pre-treated with RU.521 to ensure sufficient drug exposure by the time the first MSA-2 dose was administrated and continued RU.521 throughout the treatment course. Animals were treated with MSA-2 when tumors reached ~100 mm3.

[2] = tested on: KL, 4T1, CT26, B16F10 and E0771.1mb tumors; experiment: MSA-2 treatment of transplanted wild type or Cgas KO tumors; type: in vivo
Description: To test if loss of tumor cell cGAS activity would sensitize otherwise resistant chromosomally unstable tumors to STING agonists, wild type or Cgas KO cells […] biweekly with MSA-2.

macrophages = experiment: Macrophage polarization assays with conditioned media from MSA-2-treated cancer cells; type: cell-based
Experimental: as §1

[3] = Cgas KO tumors, KL, 4T1, CT26, B16F10, MSA-2 biweekly

SMILES | STING protein levels (HCC44) | pIRF3 in response to cGAMP stimulation (HCC44; cGAMP stimulation) | pTBK1 in response to cGAMP stimulation (HCC44; cGAMP stimulation) | tumor growth, single agent [1] | survival of treated animals [2, 3] | tumor growth [2, 3] | survival of animals ([2]; E0771.1mb Cgas KO tumors) | tumor growth ([2]; E0771.1mb tumors, both cGAS proficient and deficient) | tumor growth and survival benefit ([2]; wildtype tumors) | Arginase 1 (M2-like marker) in macrophages (macrophages; conditioned media from KL, 4T1, CT26 and B16F10 cells treated with MSA-2, with inhibition of cGAS in cancer cells) | iNOS (M1-like marker) in macrophages (macrophages; conditioned media from MSA-2-treated Cgas KO cells versus wildtype MSA-2-treated cancer cells)
Nc1ccc(-c2cc(Cl)c(Cl)c3[nH]c4c(c23)CN(C(=O)CO)CC4)cn1 [G150] | restored | enhanced | enhanced | – | – | – | – | – | – | – | –
COc1cc2cc(C(=O)CCC(=O)O)sc2cc1OC [MSA-2] | – | – | – | did not significantly hinder tumor growth | extending the survival | significantly slowed the growth | prolonged survival | grew slightly slower | comparatively minimal effect | reductions of Arginase 1 | robust increase in iNOS

From patent publication US20260285860A1, “INHIBITORS OF cGAS AND USES THEREOF” (The Trustees of Columbia University in the City of New York, priority 2023, published 2026)
